Values joined by “and” are separate entries in the source; they are usually repeats but may differ in a detail not shown here. Identical values can stand only once.
Experiment: Pharmacokinetic analysis of plasma after intravenous and oral dosing

With `O=C(O)CCOCCOCCOCCONC(=O)c1ccc(F)c(F)c1Nc1ccc(I)cc1F` [LP-622, 1-(3,4-difluoro-2-((2-fluoro-4-iodophenyl)amino)phenyl)-1-oxo-3,6,9,12-tetraoxa-2-azapentadecan-15-oic acid] the Concentration (Supplementary Figure 6a, i.v., Time 0.167 h, individual replicates) was 6.65 ng/mL and 5.91 ng/mL, the Concentration (Supplementary Figure 6a, p.o., Time 0.167 h, individual replicates) was 36.6 ng/mL and 47.3 ng/mL and 12.7 ng/mL and the Concentration (Supplementary Figure 6a, p.o., Time 0.5 h, individual replicates) was 11.6 ng/mL and 6.25 ng/mL. The Concentration (Supplementary Figure 6a, p.o., Time 1 h, individual replicates) was 8.93 ng/mL and 16.9 ng/mL and 5.41 ng/mL, the concentration at 0.167 h (female, CD-1, mouse, plasma, iv, 15 mg kg^−1, Concentration, Supplementary Figure 6a, Time 0.167 h, individual replicates) was 9.48 ng/mL and the concentration at 0.5 h (female, CD-1, mouse, plasma, iv, 15 mg kg^−1, Concentration, Time 0.5 h, individual animals, Supplementary Figure 12b) was 642 ng/mL. The concentration at 1 h (female, CD-1, mouse, plasma, iv, 15 mg kg^−1, Concentration, Time 1 h, individual animals, Supplementary Figure 12b) was 694 ng/mL, the concentration at 2 h (female, CD-1, mouse, plasma, iv, 15 mg kg^−1, Concentration, Time 2 h, individual animals, Supplementary Figure 12b) was 122 ng/mL and the concentration at 4 h (female, CD-1, mouse, plasma, iv, 15 mg kg^−1, Concentration, Time 4 h, individual animals, Supplementary Figure 12b) was 36.6 ng/mL. For the same molecule, the concentration at 7 h (female, CD-1, mouse, plasma, iv, 15 mg kg^−1, Concentration, Time 7 h, individual animals, Supplementary Figure 12b) was 23.1 ng/mL, the concentration at 16 h (female, CD-1, mouse, plasma, iv, 15 mg kg^−1, Concentration, Time 16 h, individual animals, Supplementary Figure 12b) was 1.67 ng/mL and the concentration at 24 h (female, CD-1, mouse, plasma, iv, 15 mg kg^−1, Concentration, Time 24 h, individual animals, Supplementary Figure 12b) was 3.48 ng/mL. For the same molecule, the concentration at 0.5 h (female, CD-1, mouse, plasma, po, 400 mg kg^−1, Concentration, Supplementary Figure 6a, Time 0.5 h, individual replicates) was 8.5 ng/mL, the concentration at 2 h (female, CD-1, mouse, plasma, po, 400 mg kg^−1, Concentration, Supplementary Figure 6a, Time 2 h, individual replicates) was 3.37 ng/mL and the Concentration (i.v., Time 0.167 h, individual animals, Supplementary Figure 12b) was 6980 ng/mL and 3600 ng/mL and 9800 ng/mL. For the same molecule, the Concentration (i.v., Time 0.5 h, individual animals, Supplementary Figure 12b) was 950 ng/mL and 1228 ng/mL, the Concentration (i.v., Time 1 h, individual animals, Supplementary Figure 12b) was 1082 ng/mL and the Concentration (i.v., Time 2 h, individual animals, Supplementary Figure 12b) was 115.8 ng/mL and 191 ng/mL. The Concentration (i.v., Time 4 h, individual animals, Supplementary Figure 12b) was 46.7 ng/mL and 58.4 ng/mL, the Concentration (i.v., Time 7 h, individual animals, Supplementary Figure 12b) was 33.2 ng/mL and 30.9 ng/mL and the Concentration (i.v., Time 16 h, individual animals, Supplementary Figure 12b) was 1.98 ng/mL. The Concentration (i.v., Time 24 h, individual animals, Supplementary Figure 12b) was 2.84 ng/mL and 3.15 ng/mL, the Concentration (p.o., Time 0.167 h, individual animals, Supplementary Figure 12b) was 470 ng/mL and 532 ng/mL and 956 ng/mL and the Concentration (p.o., Time 0.5 h, individual animals, Supplementary Figure 12b) was 3100 ng/mL and 1908 ng/mL and 6600 ng/mL. The Concentration (p.o., Time 1 h, individual animals, Supplementary Figure 12b) was 1430 ng/mL and 460 ng/mL and 669 ng/mL, the Concentration (p.o., Time 2 h, individual animals, Supplementary Figure 12b) was 1190 ng/mL and 582 ng/mL and 3880 ng/mL and the Concentration (p.o., Time 4 h, individual animals, Supplementary Figure 12b) was 221 ng/mL and 348 ng/mL and 1410 ng/mL. For the same molecule, the Concentration (p.o., Time 7 h, individual animals, Supplementary Figure 12b) was 1250 ng/mL and 340 ng/mL and 726 ng/mL, the Concentration (p.o., Time 16 h, individual animals, Supplementary Figure 12b) was 461 ng/mL and 352 ng/mL and 189 ng/mL and the Concentration (p.o., Time 24 h, individual animals, Supplementary Figure 12b) was 55.8 ng/mL and 114 ng/mL and 252 ng/mL.

From publication PMC9386018, “A lymphatic-absorbed multi-targeted kinase inhibitor for myelofibrosis therapy” (Nature Communications, 2022)
